{"source": "ChEMBL document CHEMBL1155237", "about": "“Selective inhibitors of the mutant B-Raf pathway: discovery of a potent and orally bioavailable aminoisoquinoline” (J Med Chem, 2009)", "key": {"[1]": {"molecular_target": "Death-associated protein kinase 1 (Homo sapiens) (UniProt P53355)", "assay": "Inhibition of DAPK1 assessed as enzyme activity at 1 uM relative to untreated control", "parameters": "scale not given: the % may be the effect or the level left"}, "[2]": {"molecular_target": "LIM domain kinase 1 (Homo sapiens) (UniProt P53667)", "sequence (P53667 whole entry, looked up, the tested form may be a part)": "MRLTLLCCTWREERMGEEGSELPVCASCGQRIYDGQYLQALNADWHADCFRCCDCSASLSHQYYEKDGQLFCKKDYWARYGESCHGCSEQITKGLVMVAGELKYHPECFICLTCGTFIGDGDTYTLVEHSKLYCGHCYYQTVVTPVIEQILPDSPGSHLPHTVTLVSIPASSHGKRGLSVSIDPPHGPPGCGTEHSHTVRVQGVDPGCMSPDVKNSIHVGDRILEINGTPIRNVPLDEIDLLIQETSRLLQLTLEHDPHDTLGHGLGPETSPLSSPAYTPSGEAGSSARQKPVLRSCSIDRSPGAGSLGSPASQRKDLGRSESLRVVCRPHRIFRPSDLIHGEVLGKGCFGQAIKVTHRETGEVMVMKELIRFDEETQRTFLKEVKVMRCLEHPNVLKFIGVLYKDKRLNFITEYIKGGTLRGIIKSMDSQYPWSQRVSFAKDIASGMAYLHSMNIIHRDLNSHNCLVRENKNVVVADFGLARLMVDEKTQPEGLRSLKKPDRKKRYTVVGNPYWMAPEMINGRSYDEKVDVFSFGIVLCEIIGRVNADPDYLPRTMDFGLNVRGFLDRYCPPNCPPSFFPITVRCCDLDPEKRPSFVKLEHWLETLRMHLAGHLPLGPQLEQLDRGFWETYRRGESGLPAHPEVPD", "assay": "Inhibition of LIMK1 assessed as enzyme activity at 1 uM relative to untreated control", "parameters": "scale not given: the % may be the effect or the level left"}, "[3]": {"tested_on": "Tyrosine-protein kinase ABL1 (Homo sapiens), P00519 [F317I]", "assay": "Inhibition of ABL1 F317I mutant assessed as enzyme activity at 1 uM relative to untreated control", "parameters": "scale not given: the % may be the effect or the level left"}, "[4]": {"tested_on": "Tyrosine-protein kinase ABL1 (Homo sapiens), P00519 [M351T]", "assay": "Inhibition of ABL1 M351T mutant assessed as enzyme activity at 1 uM relative to untreated control", "parameters": "scale not given: the % may be the effect or the level left"}, "[5]": {"molecular_target": "Ribosomal protein S6 kinase alpha-2 (Homo sapiens) (UniProt Q15349)", "assay": "Inhibition of RPS6KA2 kinase domain 2 assessed as enzyme activity at 1 uM relative to untreated control", "parameters": "scale not given: the % may be the effect or the level left"}, "[6]": {"molecular_target": "Maternal embryonic leucine zipper kinase (Homo sapiens) (UniProt Q14680)", "assay": "Inhibition of MELK assessed as enzyme activity at 1 uM relative to untreated control", "parameters": "scale not given: the % may be the effect or the level left"}, "[7]": {"molecular_target": "Cyclin-dependent kinase 17 (Homo sapiens) (UniProt Q00537)", "assay": "Inhibition of PCTK2 assessed as enzyme activity at 1 uM relative to untreated control", "parameters": "scale not given: the % may be the effect or the level left"}, "[8]": {"molecular_target": "Tyrosine-protein kinase HCK (Homo sapiens) (UniProt P08631)", "assay": "Inhibition of HCK assessed as enzyme activity at 1 uM relative to untreated control", "parameters": "scale not given: the % may be the effect or the level left"}, "[9]": {"molecular_target": "NT-3 growth factor receptor (Homo sapiens) (UniProt Q16288)", "sequence (Q16288 32-839 limits assumed)": "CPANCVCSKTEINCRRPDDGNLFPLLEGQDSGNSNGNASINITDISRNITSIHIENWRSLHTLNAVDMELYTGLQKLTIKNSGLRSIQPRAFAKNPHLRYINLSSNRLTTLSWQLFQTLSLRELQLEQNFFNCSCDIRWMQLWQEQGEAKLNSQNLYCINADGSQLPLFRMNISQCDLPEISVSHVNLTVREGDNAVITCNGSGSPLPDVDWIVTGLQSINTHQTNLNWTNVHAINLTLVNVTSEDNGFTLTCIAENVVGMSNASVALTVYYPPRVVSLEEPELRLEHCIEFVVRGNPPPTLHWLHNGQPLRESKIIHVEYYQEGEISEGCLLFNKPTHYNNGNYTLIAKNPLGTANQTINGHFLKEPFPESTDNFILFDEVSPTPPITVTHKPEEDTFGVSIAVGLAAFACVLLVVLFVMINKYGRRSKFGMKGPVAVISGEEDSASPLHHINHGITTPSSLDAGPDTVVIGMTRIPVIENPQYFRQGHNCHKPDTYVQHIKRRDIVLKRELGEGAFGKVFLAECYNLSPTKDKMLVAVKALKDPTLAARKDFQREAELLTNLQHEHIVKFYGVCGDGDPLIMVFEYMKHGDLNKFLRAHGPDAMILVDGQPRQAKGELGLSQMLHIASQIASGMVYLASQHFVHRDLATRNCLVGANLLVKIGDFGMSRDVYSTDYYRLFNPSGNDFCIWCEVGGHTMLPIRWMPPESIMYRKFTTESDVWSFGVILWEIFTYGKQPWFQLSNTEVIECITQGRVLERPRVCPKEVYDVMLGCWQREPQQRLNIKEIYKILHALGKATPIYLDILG", "assay": "Inhibition of TRKC assessed as enzyme activity at 1 uM relative to untreated control", "parameters": "scale not given: the % may be the effect or the level left"}, "[10]": {"molecular_target": "RAC-beta serine/threonine-protein kinase (Homo sapiens) (UniProt P31751)", "sequence (P31751 whole entry)": "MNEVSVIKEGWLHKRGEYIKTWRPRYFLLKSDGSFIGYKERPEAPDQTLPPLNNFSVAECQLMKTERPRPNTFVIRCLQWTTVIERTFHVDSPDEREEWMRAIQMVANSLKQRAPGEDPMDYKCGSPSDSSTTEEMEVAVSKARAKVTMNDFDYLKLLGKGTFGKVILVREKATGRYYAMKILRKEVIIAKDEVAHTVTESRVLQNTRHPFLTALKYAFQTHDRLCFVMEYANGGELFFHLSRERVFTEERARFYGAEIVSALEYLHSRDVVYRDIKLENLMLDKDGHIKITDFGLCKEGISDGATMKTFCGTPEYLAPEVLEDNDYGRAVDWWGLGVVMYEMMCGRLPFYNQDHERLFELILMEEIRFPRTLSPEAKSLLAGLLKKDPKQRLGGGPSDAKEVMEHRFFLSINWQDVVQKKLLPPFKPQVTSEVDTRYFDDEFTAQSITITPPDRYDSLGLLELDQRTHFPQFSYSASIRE", "assay": "Inhibition of AKT2 assessed as enzyme activity at 1 uM relative to untreated control", "parameters": "scale not given: the % may be the effect or the level left"}, "[11]": {"molecular_target": "Serine/threonine-protein kinase DCLK1 (Homo sapiens) (UniProt O15075)", "assay": "Inhibition of DCAMKL1 assessed as enzyme activity at 1 uM relative to untreated control", "parameters": "scale not given: the % may be the effect or the level left"}, "[12]": {"molecular_target": "Death-associated protein kinase 3 (Homo sapiens) (UniProt O43293)", "assay": "Inhibition of DAPK3 assessed as enzyme activity at 1 uM relative to untreated control", "parameters": "scale not given: the % may be the effect or the level left"}, "[13]": {"molecular_target": "Serine/threonine-protein kinase 35 (Homo sapiens) (UniProt Q8TDR2)", "sequence (Q8TDR2 whole entry)": "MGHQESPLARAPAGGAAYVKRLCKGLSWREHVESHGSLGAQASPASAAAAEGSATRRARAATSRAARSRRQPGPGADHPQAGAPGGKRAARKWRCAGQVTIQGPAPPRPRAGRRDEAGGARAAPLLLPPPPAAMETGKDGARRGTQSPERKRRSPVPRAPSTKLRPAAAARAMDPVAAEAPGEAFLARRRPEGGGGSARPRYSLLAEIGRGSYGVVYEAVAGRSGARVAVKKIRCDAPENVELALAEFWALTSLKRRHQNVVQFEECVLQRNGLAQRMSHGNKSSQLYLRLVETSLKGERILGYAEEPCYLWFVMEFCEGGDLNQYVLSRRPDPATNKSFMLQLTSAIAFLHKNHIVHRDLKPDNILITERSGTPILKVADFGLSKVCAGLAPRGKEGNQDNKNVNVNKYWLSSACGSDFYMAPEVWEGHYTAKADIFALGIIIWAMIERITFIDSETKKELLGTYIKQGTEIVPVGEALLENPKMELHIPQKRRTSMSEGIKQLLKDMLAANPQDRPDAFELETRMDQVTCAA", "assay": "Inhibition of STK35 assessed as enzyme activity at 1 uM relative to untreated control", "parameters": "scale not given: the % may be the effect or the level left"}, "[14]": {"molecular_target": "MAP/microtubule affinity-regulating kinase 4 (Homo sapiens) (UniProt Q96L34)", "sequence (Q96L34 whole entry)": "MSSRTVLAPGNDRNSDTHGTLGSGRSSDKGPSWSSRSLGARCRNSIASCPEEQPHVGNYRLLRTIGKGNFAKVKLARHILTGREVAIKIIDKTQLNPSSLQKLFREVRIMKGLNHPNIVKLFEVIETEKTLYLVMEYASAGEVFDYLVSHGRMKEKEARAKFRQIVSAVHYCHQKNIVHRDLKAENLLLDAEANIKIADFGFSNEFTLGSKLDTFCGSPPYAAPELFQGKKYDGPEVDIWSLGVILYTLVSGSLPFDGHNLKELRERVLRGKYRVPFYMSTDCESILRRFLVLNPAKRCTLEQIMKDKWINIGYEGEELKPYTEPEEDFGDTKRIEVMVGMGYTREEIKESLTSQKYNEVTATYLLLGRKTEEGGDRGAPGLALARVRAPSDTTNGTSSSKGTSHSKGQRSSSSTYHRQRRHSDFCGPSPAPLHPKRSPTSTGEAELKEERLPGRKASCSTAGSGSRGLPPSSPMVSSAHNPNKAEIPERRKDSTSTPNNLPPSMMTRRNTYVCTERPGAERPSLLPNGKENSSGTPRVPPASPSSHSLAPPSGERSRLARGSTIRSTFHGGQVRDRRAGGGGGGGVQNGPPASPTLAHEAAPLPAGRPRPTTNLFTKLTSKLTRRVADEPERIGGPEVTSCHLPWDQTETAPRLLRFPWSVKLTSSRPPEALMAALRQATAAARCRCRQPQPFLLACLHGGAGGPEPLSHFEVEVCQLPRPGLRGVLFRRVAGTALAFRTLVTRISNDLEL", "assay": "Inhibition of MARK4 assessed as enzyme activity at 1 uM relative to untreated control", "parameters": "scale not given: the % may be the effect or the level left"}, "[15]": {"molecular_target": "Serine/threonine-protein kinase PAK 4 (Homo sapiens) (UniProt O96013)", "sequence (O96013 whole entry, looked up)": "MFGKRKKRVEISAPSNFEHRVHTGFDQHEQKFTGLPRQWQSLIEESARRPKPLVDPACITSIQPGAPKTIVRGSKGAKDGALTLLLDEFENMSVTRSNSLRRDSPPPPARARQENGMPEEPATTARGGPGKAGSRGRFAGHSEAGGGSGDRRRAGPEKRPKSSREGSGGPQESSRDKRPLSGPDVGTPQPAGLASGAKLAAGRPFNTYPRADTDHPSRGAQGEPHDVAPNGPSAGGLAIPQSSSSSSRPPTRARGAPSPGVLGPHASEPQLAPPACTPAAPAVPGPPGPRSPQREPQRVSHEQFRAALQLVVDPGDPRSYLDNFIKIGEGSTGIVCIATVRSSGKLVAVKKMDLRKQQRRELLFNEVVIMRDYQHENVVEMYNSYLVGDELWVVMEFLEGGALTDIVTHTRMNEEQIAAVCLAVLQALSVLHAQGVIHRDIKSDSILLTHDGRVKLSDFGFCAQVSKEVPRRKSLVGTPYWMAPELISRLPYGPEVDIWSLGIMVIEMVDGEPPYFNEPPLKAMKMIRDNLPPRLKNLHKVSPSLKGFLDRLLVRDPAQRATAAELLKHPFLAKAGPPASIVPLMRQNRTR", "assay": "Inhibition of PAK4 assessed as enzyme activity at 1 uM relative to untreated control", "parameters": "scale not given: the % may be the effect or the level left"}, "[16]": {"molecular_target": "Focal adhesion kinase 1 (Homo sapiens) (UniProt Q05397)", "assay": "Inhibition of PTK2 assessed as enzyme activity at 1 uM relative to untreated control", "parameters": "scale not given: the % may be the effect or the level left"}, "[17]": {"molecular_target": "Ephrin type-B receptor 3 (Homo sapiens) (UniProt P54753)", "assay": "Inhibition of EPHB3 assessed as enzyme activity at 1 uM relative to untreated control", "parameters": "scale not given: the % may be the effect or the level left"}, "[18]": {"tested_on": "Receptor-type tyrosine-protein kinase FLT3 (Homo sapiens), P36888 [K663Q]", "assay": "Inhibition of FLT3 K663Q mutant assessed as enzyme activity at 1 uM relative to untreated control", "parameters": "scale not given: the % may be the effect or the level left"}, "[19]": {"molecular_target": "Ankyrin repeat and protein kinase domain-containing protein 1 (Homo sapiens) (UniProt Q8NFD2)", "assay": "Inhibition of ANKK1 assessed as enzyme activity at 1 uM relative to untreated control", "parameters": "scale not given: the % may be the effect or the level left"}, "[20]": {"molecular_target": "Serine/threonine-protein kinase pim-2 (Homo sapiens) (UniProt Q9P1W9)", "assay": "Inhibition of PIM2 assessed as enzyme activity at 1 uM relative to untreated control", "parameters": "scale not given: the % may be the effect or the level left"}, "[21]": {"molecular_target": "Serine/threonine-protein kinase N1 (Homo sapiens) (UniProt Q16512)", "assay": "Inhibition of PKN1 assessed as enzyme activity at 1 uM relative to untreated control", "parameters": "scale not given: the % may be the effect or the level left"}, "[22]": {"tested_on": "Receptor-type tyrosine-protein kinase FLT3 (Homo sapiens), P36888 [D835Y]", "assay": "Inhibition of FLT3 D835Y mutant assessed as enzyme activity at 1 uM relative to untreated control", "parameters": "scale not given: the % may be the effect or the level left"}, "Angiopoietin-1 receptor": {"molecular_target": "Angiopoietin-1 receptor (Homo sapiens, UniProt Q02763)", "assay": "Inhibition of Tie2"}, "[23]": {"molecular_target": "Serine/threonine-protein kinase 17A (Homo sapiens) (UniProt Q9UEE5)", "assay": "Inhibition of DRAK1 assessed as enzyme activity at 1 uM relative to untreated control", "parameters": "scale not given: the % may be the effect or the level left"}, "[24]": {"molecular_target": "Myosin light chain kinase, smooth muscle (Homo sapiens) (UniProt Q15746)", "assay": "Inhibition of MLCK assessed as enzyme activity at 1 uM relative to untreated control", "parameters": "scale not given: the % may be the effect or the level left"}, "[25]": {"molecular_target": "Phosphorylase b kinase gamma catalytic chain, liver/testis isoform (Homo sapiens) (UniProt P15735)", "assay": "Inhibition of PHKG2 assessed as enzyme activity at 1 uM relative to untreated control", "parameters": "scale not given: the % may be the effect or the level left"}, "[26]": {"molecular_target": "cAMP-dependent protein kinase catalytic subunit beta (Homo sapiens) (UniProt P22694)", "assay": "Inhibition of PKACbeta assessed as enzyme activity at 1 uM relative to untreated control", "parameters": "scale not given: the % may be the effect or the level left"}, "[27]": {"molecular_target": "Mitogen-activated protein kinase kinase kinase kinase 3 (Homo sapiens) (UniProt Q8IVH8)", "assay": "Inhibition of MAP4K3 assessed as enzyme activity at 1 uM relative to untreated control", "parameters": "scale not given: the % may be the effect or the level left"}, "[28]": {"molecular_target": "Proto-oncogene tyrosine-protein kinase ROS (Homo sapiens) (UniProt P08922)", "assay": "Inhibition of ROS1 assessed as enzyme activity at 1 uM relative to untreated control", "parameters": "scale not given: the % may be the effect or the level left"}, "[29]": {"molecular_target": "Ribosomal protein S6 kinase alpha-1 (Homo sapiens) (UniProt Q15418)", "assay": "Inhibition of RPS6KA1 kinase domain 1 assessed as enzyme activity at 1 uM relative to untreated control", "parameters": "scale not given: the % may be the effect or the level left"}, "[30]": {"molecular_target": "Tyrosine-protein kinase Mer (Homo sapiens) (UniProt Q12866)", "assay": "Inhibition of MERTK assessed as enzyme activity at 1 uM relative to untreated control", "parameters": "scale not given: the % may be the effect or the level left"}, "[31]": {"molecular_target": "Tyrosine-protein kinase Fes/Fps (Homo sapiens) (UniProt P07332)", "assay": "Inhibition of FES assessed as enzyme activity at 1 uM relative to untreated control", "parameters": "scale not given: the % may be the effect or the level left"}, "[32]": {"molecular_target": "Ephrin type-A receptor 6 (Homo sapiens) (UniProt Q9UF33)", "sequence (Q9UF33 whole entry)": "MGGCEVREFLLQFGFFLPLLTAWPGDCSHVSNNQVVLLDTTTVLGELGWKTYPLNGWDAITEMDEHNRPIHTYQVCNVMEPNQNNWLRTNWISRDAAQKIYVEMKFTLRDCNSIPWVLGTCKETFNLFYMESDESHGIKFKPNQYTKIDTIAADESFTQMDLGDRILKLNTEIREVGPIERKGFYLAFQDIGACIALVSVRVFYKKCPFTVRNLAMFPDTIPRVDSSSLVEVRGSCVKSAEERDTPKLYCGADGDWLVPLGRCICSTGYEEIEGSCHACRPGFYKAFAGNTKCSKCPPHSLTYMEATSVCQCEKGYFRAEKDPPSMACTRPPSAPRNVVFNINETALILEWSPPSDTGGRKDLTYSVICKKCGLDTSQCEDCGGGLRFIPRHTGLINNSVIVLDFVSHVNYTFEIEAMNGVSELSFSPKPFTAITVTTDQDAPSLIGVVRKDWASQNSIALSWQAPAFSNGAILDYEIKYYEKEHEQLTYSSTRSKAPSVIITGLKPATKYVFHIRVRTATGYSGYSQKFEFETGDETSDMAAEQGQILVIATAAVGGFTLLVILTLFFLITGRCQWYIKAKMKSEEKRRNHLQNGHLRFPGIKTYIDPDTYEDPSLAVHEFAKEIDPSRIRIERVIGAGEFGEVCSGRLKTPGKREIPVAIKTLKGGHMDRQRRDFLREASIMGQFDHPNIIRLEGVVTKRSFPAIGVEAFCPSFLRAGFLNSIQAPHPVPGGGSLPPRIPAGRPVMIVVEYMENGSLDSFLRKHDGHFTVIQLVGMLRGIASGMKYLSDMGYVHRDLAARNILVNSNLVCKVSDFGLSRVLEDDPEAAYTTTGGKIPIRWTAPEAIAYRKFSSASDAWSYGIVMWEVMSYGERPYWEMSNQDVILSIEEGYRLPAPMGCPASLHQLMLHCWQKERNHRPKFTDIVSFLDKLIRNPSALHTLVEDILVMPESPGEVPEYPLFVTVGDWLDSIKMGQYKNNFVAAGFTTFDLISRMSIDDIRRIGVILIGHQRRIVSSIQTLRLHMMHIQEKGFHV", "assay": "Inhibition of EPHA6 assessed as enzyme activity at 1 uM relative to untreated control", "parameters": "scale not given: the % may be the effect or the level left"}, "[33]": {"molecular_target": "Tyrosine-protein kinase Fgr (Homo sapiens) (UniProt P09769)", "assay": "Inhibition of FGR assessed as enzyme activity at 1 uM relative to untreated control", "parameters": "scale not given: the % may be the effect or the level left"}, "[34]": {"tested_on": "Phosphatidylinositol 4,5-bisphosphate 3-kinase catalytic subunit alpha isoform (Homo sapiens), P42336 [E545K]", "assay": "Inhibition of PIK3CA E545K mutant assessed as enzyme activity at 1 uM relative to untreated control", "parameters": "scale not given: the % may be the effect or the level left"}, "[35]": {"molecular_target": "RAF proto-oncogene serine/threonine-protein kinase (Homo sapiens) (UniProt P04049)", "assay": "Inhibition of RAF1 assessed as enzyme activity at 1 uM relative to untreated control", "parameters": "scale not given: the % may be the effect or the level left"}, "[36]": {"molecular_target": "Receptor tyrosine-protein kinase erbB-4 (Homo sapiens) (UniProt Q15303)", "assay": "Inhibition of ERBB4 assessed as enzyme activity at 1 uM relative to untreated control", "parameters": "scale not given: the % may be the effect or the level left"}}}
{"smiles": "Cc1ccc2c(Nc3ccc(Cl)cc3)nccc2c1Nc1ncccc1-c1ncnc2[nH]cnc12.Cl.Cl.Cl", "values": [{"measurement": "Activity", "setting": "[1]", "result": 90, "unit": "%"}, {"measurement": "Activity", "setting": "[2]", "result": 55, "unit": "%"}, {"measurement": "Activity", "setting": "[3]", "result": 86, "unit": "%"}, {"measurement": "Activity", "setting": "[4]", "result": 45, "unit": "%"}, {"measurement": "Activity", "setting": "[5]", "result": 81, "unit": "%"}, {"measurement": "Activity", "setting": "[6]", "result": 100, "unit": "%"}, {"measurement": "Activity", "setting": "[7]", "result": 100, "unit": "%"}, {"measurement": "Activity", "setting": "[8]", "result": 53, "unit": "%"}, {"measurement": "Activity", "setting": "[9]", "result": 2.2, "unit": "%"}, {"measurement": "Activity", "setting": "[10]", "result": 88, "unit": "%"}, {"measurement": "Activity", "setting": "[11]", "result": 80, "unit": "%"}, {"measurement": "Activity", "setting": "[12]", "result": 100, "unit": "%"}, {"measurement": "Activity", "setting": "[13]", "result": 92, "unit": "%"}, {"measurement": "Activity", "setting": "[14]", "result": 100, "unit": "%"}, {"measurement": "Activity", "setting": "[15]", "result": 92, "unit": "%"}, {"measurement": "Activity", "setting": "[16]", "result": 93, "unit": "%"}, {"measurement": "Activity", "setting": "[17]", "result": 10, "unit": "%"}, {"measurement": "Activity", "setting": "[18]", "result": 75, "unit": "%"}, {"measurement": "Activity", "setting": "[19]", "result": 100, "unit": "%"}, {"measurement": "Activity", "setting": "[20]", "result": 100, "unit": "%"}, {"measurement": "Activity", "setting": "[21]", "result": 100, "unit": "%"}, {"measurement": "Activity", "setting": "[22]", "result": 92, "unit": "%"}, {"measurement": "IC50", "setting": "Angiopoietin-1 receptor", "result": 120, "unit": "nM"}, {"measurement": "Activity", "setting": "[23]", "result": 100, "unit": "%"}, {"measurement": "Activity", "setting": "[24]", "result": 99, "unit": "%"}, {"measurement": "Activity", "setting": "[25]", "result": 100, "unit": "%"}, {"measurement": "Activity", "setting": "[26]", "result": 94, "unit": "%"}, {"measurement": "Activity", "setting": "[27]", "result": 85, "unit": "%"}, {"measurement": "Activity", "setting": "[28]", "result": 72, "unit": "%"}, {"measurement": "Activity", "setting": "[29]", "result": 94, "unit": "%"}, {"measurement": "Activity", "setting": "[30]", "result": 99, "unit": "%"}, {"measurement": "Activity", "setting": "[31]", "result": 100, "unit": "%"}, {"measurement": "Activity", "setting": "[32]", "result": 2.8, "unit": "%"}, {"measurement": "Activity", "setting": "[33]", "result": 100, "unit": "%"}, {"measurement": "Activity", "setting": "[34]", "result": 100, "unit": "%"}, {"measurement": "Activity", "setting": "[35]", "result": 0, "unit": "%"}, {"measurement": "Activity", "setting": "[36]", "result": 98, "unit": "%"}]}
